The values below come from US11795213B2, “Methods and compositions for treating celiac disease” (Beth Israel Deaconess Medical Center, Inc., priority 2010, dated 2023).

In assay [1] the test system is peritoneal macrophages of C3H/HeJ mice that lack TLR4 responses. The assay can be described thus: Cytokine secretion by peritoneal macrophages of TLR4 deficient C3H/HeJ versus C3H/HeOuJ mice. Type of assay: cell-based, mouse. The following applies: TLR4 deficient C3H/HeJ compared to syngenic C3H/HeOuJ TLR4 competent mice. The procedure: Since MyD88 transmits signals from several TLRs, we studied peritoneal macrophages of C3H/HeJ mice that lack TLR4 responses due to a spontaneous point mutation in the TLR4 gene.
Murine resident peritoneal macrophages were isolated by peritoneal lavage using a 3 ml syringe and 18 G needles. Three 3 ml of sterile PBS was injected into the peritoneal cavity and reaspirated after gentle massage of the abdomen. For further purification MACS separation for CD11b positive cells was done according to the manufacturer's protocol (Miltenyi).
(§1) For stimulation cells were seeded on polystyrene wells at a density of 1×10^6/ml. Unless otherwise stated supernatants were harvested after a 16 hr incubation with various stimulants.
C3H/HeJ, C3H/HeOuJ and Rag1−/− mice were obtained from The Jackson Laboratory (Bar Harbour, ME). The MyD88−/− mice were a kind gift from S. Akira, (Osaka University, Osaka, Japan). Congenic C57BL/6J mice served as experimental controls and were bred under the same conditions in the same facility. All experiments were done with mice at age 5-7 weeks.
(§2) The concentration of IL-8, TNF-α, MCP-1, RANTES, and mouse IL-8 (KC) in cell culture supernatants and serum samples was determined using validated ELISAs (IL-8, hTNFα: BD Pharmingen, San Jose, CA; MCP-1, hRANTES, mRANTES, KC: R&D Systems, (Minneapolis, MN; mTNFα: eBioscience, San Diego, CA), according to the manufacturer's protocols.

Assay [2] addresses T1, human TLR4-CD14-MD2-complex (Homo sapiens, UniProt O00206+Q9Y6Y9).
T1 construct: host or cells: HEK-293 (stably transfected)
In words: IL-8 secretion by HEK-293 cells transfected with TLR4-CD14-MD2 complex. It is filed as cell-based. Conditions: for IL-8 secretion: TLR4-CD14-MD2 transfected HEK-293; for stimulatory activity after additional purification using an endotoxin depletion column: 5 μg/ml, IL-8 after 24 h, FIG. 9C. The procedure: (§3) THP-1, U937, HEK-293 (all from ATCC, Manassas, VA), and HEK-293 cells stably transfected with the TLR4-CD14-MD2 complex (Invivogen) were cultured in complete RPM or DMEM (Cellgro, Manassas, VA) supplemented with penicillin/streptomycin and 10% fetal calf serum at 37° C. in a 5% CO2 atmosphere.
as §1, §2
While sufficient CM3 protein was secreted into the media, 0.19 ATI had to be isolated from the detergent-soluble fraction. Briefly, HEK-cells expressing 0.19 were washed with ice cold-PBS, resuspended in 50 ml of buffer C for 15 min on ice, and centrifuged at 14,000 rpm for 20 min at 4° C. Thus, the solubilized 0.19 and soluble CM3 were bound to Flag-M2 agarose (Sigma-Aldrich) pre-equilibrated with buffer C by gentle shaking for 3 h at 4° C., washed three times with buffer C, and further washed three times with buffer D (Buffer C without detergents). Bound ATIs were eluted with TBS [pH 7.4] containing Flag peptide (Sigma-Aldrich). In order to rigorously exclude endotoxin, eluted CM3 and 0.19 were also applied to an entotoxin removal column (Norgen Biotek corp., Thorold, ON, Canada). ATIs were the used at 5 μg/ml to stimulate HEK-293 cells stably transfected with the TLR4-CD14-MD2 complex, and IL-8 secretion was quantified after 24 h using the IL-8 ELISA as described above.

The subject of assay [3] is THP-1. The assay can be described thus: Cytokine secretion by stimulated THP-1 monocytic cells (ELISA). It is filed as cell-based, human.
Excerpt: (§4) To examine how far gliadin elicits innate immune responses, we stimulated the human monocytic cell lines THP-1 and U937 with different concentrations of gliadin digested with pepsin and trypsin (PT gliadin) and measured secretion of proinflammatory cytokines in the supernatant. A digest of zein, partly homolgous storage proteins from corn that lack toxicity for patients with celiac disease, served as negative control. […] To rule out LPS contamination as trigger of innate responses, gliadin, LPS, and TNF-α were digested with proteinase K, completely digesting and abrogating all peptide-related activities.
as §3, §1
After proteinase K inactivation by boiling for 5 minute the digests were used for cell stimulation.
as §2
In general terms: An ELISA detects its analyte on a solid surface through an enzyme-linked reagent.

In assay [4] the test system is U937. The assay can be described thus: Cytokine secretion by stimulated U937 monocytic cells (ELISA). It is filed as cell-based, human. The following applies: even at 40 μg/ml.
Excerpt: as §4, §3, §1, §2

The subject of assay [5] is celiac biopsies. Conditions: shown previously; cited from earlier work.
In assay [6] the test system is intestinal epithelial cell lines (HT29, Caco-2 and T84). The assay can be described thus: Cytokine secretion by intestinal epithelial cell lines. Type of assay: cell-based. Conditions: even at 40 μg/ml. The procedure:
as §1, §2

Assay [7] concerns human monocyte-derived dendritic cells (DC). The assay can be described thus: Cytokine secretion by human monocyte-derived dendritic cells (ELISA). It is filed as cell-based. The procedure:
For isolation of peripheral monocytes 40 ml blood was obtained from 11 patients with celiac disease during their diagnostic workup (median 37 years, range 18-59 years), after prior informed consent Eight patients were on gluten free diet and in clinical remission, three patients were newly diagnosed and therefore on a regular gluten containing diet Control monocytes were from the buffy coat of leukopheresis concentrates of anonymous blood donors. Whole EDTA blood or leukapheresis concentrates were subjected to density gradient centrifugation over Ficoll-Hypaque (GE Healthcare, Pittsburgh, PA) and CD14-positive monocytes purified by MACS separation according to the manufacturer's protocol (Miltenyi, Bergisch Gladbach, Germany). For generation of dendritic cells, monocytes were cultured in RPMI supplemented with 10% fetal calf serum, 200 U/ml rhIL-4 and 300 U/ml rhGM-CSF (both from PeproTech, Rocky Hill, NJ) for 6-8 days.
For stimulation cells were seeded on polystyrene wells at a density of 1×10^6/ml. […]
as §2

The test system of assay [8] is TLR4-pathway. In words: Downstream signaling by CM3 and 0.19 overexpression in TLR4-CD14-MD2 expressing HEK-293 cells (Western blot). It is filed as cell-based. Conditions: overexpression in TLR4/MD2/CD14 expressing HEK-293 cells. The procedure: FIG. 9D is a western blot showing expression of CM3 and 0.19 in TLR4-CD14-MD2 expressing HEK-293 cells (HEK-TLR4) induces downstream signaling of the canonical (p-NF-κB/p65) and the alternative (p-IRF3) pathways. Western blots of whole cell lysates (50 μg protein).
HEK-293 cells stably expressing TLR4-CD14-MD2 were induced to express CM3 or 0.19, respectively, followed by cell lysis in buffer C. Lysates were cleared by centrifugation at 14,000 rpm for 20 min at 4° C., and 50 μg of protein run on a 15% SDS-gel and subjected to Western blotting to analyze activation of the canonical and the alternative (p-IRF3) pathways using antibodies to phosphorylated and unphosphorylated (p-NF-κB/p65) and IRF3 (all from Cell Signaling Technology, Danvers, MA).
Background: In western blotting, separated proteins are transferred to a membrane and probed.

T1 sequence (O00206 24-839): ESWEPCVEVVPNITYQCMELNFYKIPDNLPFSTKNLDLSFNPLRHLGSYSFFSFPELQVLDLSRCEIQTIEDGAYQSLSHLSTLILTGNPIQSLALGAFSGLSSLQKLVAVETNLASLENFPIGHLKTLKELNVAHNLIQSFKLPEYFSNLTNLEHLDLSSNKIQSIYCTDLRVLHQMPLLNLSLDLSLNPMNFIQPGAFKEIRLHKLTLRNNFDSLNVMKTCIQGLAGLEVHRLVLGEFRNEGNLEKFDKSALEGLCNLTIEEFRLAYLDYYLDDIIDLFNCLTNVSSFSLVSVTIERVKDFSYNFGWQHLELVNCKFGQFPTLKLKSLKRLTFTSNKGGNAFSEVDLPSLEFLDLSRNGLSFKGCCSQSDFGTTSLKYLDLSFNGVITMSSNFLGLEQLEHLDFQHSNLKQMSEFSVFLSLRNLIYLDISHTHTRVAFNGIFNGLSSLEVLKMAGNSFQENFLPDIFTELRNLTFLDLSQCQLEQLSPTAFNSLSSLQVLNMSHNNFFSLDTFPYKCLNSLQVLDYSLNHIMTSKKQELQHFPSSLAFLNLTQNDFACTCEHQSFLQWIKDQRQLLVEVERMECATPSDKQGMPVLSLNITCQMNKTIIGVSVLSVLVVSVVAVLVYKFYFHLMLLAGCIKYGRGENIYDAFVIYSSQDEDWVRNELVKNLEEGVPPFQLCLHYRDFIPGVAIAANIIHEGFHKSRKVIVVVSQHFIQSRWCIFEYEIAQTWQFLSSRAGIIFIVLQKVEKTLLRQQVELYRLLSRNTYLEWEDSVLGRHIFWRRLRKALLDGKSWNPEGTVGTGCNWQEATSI
T1 sequence (Q9Y6Y9 17-160 limits assumed): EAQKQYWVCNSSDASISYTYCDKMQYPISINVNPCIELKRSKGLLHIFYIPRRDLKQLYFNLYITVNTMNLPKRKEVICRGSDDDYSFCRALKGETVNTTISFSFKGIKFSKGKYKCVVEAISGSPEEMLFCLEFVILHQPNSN

In the case of “N-Palmitoyl-S-[2,3-bis(palmitoyloxy)-(2RS)-propyl]-[R]-cysteinyl-[S]-seryl-[S]-lysyl-[S]-lysyl-[S]-lysyl-[S]-lysine x3 HCl [Pam3CSK4]”, in assay [1], the “KC (IL-8) secretion” value is “equally high amounts” and the TNF-α secretion result is recorded as “equally high amounts”. Besides, in assay [2], the IL-8 secretion result is recorded as “absence of IL-8 induction”.
For the molecule TNF-α, in assay [3] (20 μg/ml proteinase K, 4 hrs at 56° C., FIG. 1F), the “IL-8 induction after proteinase K digestion of the stimulant” value was “lost its stimulatory capacity”.
In the case of “LGQQQPFPPQQPY [p31-43, Peptide p31-43 of α-gliadin]”, in assay [4], the IL-8 secretion entry was “did not elicit secretion”, the MCP-1 secretion entry was “did not elicit secretion” and the TNF-α secretion result is reported as “did not elicit secretion”. Moreover, the IL-15 secretion entry in assay [5] is “increases IL-15 secretion”. Moreover, in assay [6], the IL-8 secretion result is listed as “did not elicit secretion”, the MCP-1 secretion entry is “did not elicit secretion” and the TNF-α secretion result is “did not elicit secretion”. Further, in assay [3] (even at 40 μg/ml), the IL-8 secretion result is “did not elicit secretion”, the MCP-1 secretion result is recorded as “did not elicit secretion” and the TNF-α secretion entry is “did not elicit secretion”.

B1: CM3: recombinant flag-tagged wheat alpha amylase inhibitor CM3 (SEQ ID NO: 1) expressed in HEK-293 cells (protein)
chain: MACKSSCSLLLLAAVLLSVLAAASASGSCVPGVAFRTNLLPHCRDYVLQQTCGTFTPGSLPEWMTSASIYSPGKPYLAKLYCCQELAEISQQCRCEALRYFIALPVPSQPVDPRSGNVGESGLIDLPGCPREMQWDFVRLLVAPGQCNLATIHNVRYCPAVEQPLWIDYKDDDDK
modifications: FLAG tag
In the case of B1, in assay [7], the IL-8 secretion result is “upregulated IL-8 secretion”. In assay [2], the “stimulatory activity after additional purification using an endotoxin depletion column” value is on record as “maintained” and the IL-8 secretion result is “stimulated”. Besides, in assay [8], the “alternative TLR4-pathway (p-IRF3)” value is recorded as “strongly induced” and the “canonical TLR4-pathway (p-NF-κB/p65)” value is “strongly induced”.

B2: 0.19: recombinant flag-tagged wheat alpha amylase inhibitor 0.19 (SEQ ID NO: 2) expressed in HEK-293 cells (protein, listed as Triticum aestivum)
chain: SGPWMCYPGQAFQVPALPACRPLLRLQCNGSQVPEAVLRDCCQQLAHISEWCRCGALYSMLDSMYKEHGAQEGQAGTGAFPRCRREVVKLTAASITAVCRLPIVVDASGDGAYVCKDVAAYPD
modifications: FLAG tag
B2: in assay [2], the “stimulatory activity after additional purification using an endotoxin depletion column” value is on record as “maintained” and the IL-8 secretion result is recorded as “stimulated”. For the same molecule, in assay [8], the “alternative TLR4-pathway (p-IRF3)” value is “strongly induced” and the “canonical TLR4-pathway (p-NF-κB/p65)” value is reported as “strongly induced”.
